Measured values reported in patent US20210386709A1, “COMPOSITIONS AND METHODS FOR SUPPRESSING MSUT2” (United States Government As Represented By The Department …, priority 2020, published 2021).
Like-named read-outs stand apart in the source and are kept apart here. Values belong to the molecule of their own block, whether it stands above or below them. {FAM} = fluorescein amidite label

Legend:
MSUT2 ZF = molecular target: T1, MSUT2 ZF (Homo sapiens, UniProt Q6PJT7); test: Fluorescence polarization assay of FAM-poly(A) RNA:MSUT2 ZF binding; settings: for Ki (nm) for MSUT2 / Ki: calculated by Cheng Prusof equation Ki=(IC50)/[(L/Kd)+1], FP dose response; for Ki: read-out: Ki (nm) for MSUT2
T1 construct: Targeted construct consisted of the c-terminal end (dark blue and amino acids 601-736) of MSUT2; made in house; host or cells: E. coli BL21 (DE3)
T1 sequence (Q6PJT7 601-736): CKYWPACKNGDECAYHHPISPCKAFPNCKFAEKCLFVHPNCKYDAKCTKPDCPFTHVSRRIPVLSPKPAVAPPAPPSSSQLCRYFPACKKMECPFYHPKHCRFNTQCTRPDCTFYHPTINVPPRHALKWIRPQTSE
Experimental: Fluorescence Polarization Assay. […] 2 μL of compound was transferred for a final concentration of 10 μM. […] Fluorescence polarization was calculated by first subtracting background from a buffer-only control well and then using the equation
Results and Discussion. A high-throughput fluorescence polarization assay for inhibition of poly(A):MSUT2 RNA interaction. […] In order to screen potential inhibitors of MSUT2 RBP and RNA by FP, fluorescent FAM (fluorescein amidite)-labeled poly(A)15 RNA (FAM-RNA) and recombinant MSUT2 ZF (zinc finger) protein expressing constructs were generated (FIG. 7a). […] Inhibition of the interaction results in unbound FAM-RNA tumbling at a relatively rapid rate and emitting non-polarized light (FIG. 7b).
(§1) To determine the concentrations of both MSUT2 ZF protein and FAM-RNA probe useful in the methods described herein, a two dimensional titration of protein and RNA concentrations in 96-well format was performed. […] Next, the binding constant between MSUT2 ZF and FAM-RNA was determined by holding FAM-RNA constant at 10 nM while increasing MSUT2 ZF concentration.
(§2) Identification and validation of MSUT2 inhibitory compounds from NIHCC library. […] IC50 of each of the previous 8 compounds was determined for PABPN1 using fluorescence polarization (FIG. 11), and a specificity ratio determined (Table 3). An Alpha Screen (AS) assay was developed as an orthogonal screen. Briefly, in this screen, biotinylated RNA binds streptavidin-coated donor beads, while GST-MSUT2 ZF binds glutathione-coated acceptor beads. When donor beads and acceptor beads are brought within close proximity of one another, laser excitation leads to fluorophore emission of the acceptor bead via excited singlet oxygen activating chemiluminescers in the acceptor beads. […] Toxicity of these compounds in a HEK cell model was determined using a standard Promega Cell Titer Glo assay.
(§3) Fluorescence Polarization Assay. […] of stock compound was transferred yielding 10 μM final concentration. […] Fluorescence polarization was calculated by first subtracting background from a buffer-only control well and then using the equation

HEK-293 cells = test: Cell viability, Promega Cell Titer Glo
PABPN1 [1] = molecular target: T2, PABPN1 (Homo sapiens, UniProt Q86U42); test: PABPN1 fluorescence polarization counter screen; format: binding; settings: for IC50 / IC50PABPN1: fluorescence polarization counter screen; for IC50: unit inferred, read-out: IC50PABPN1; for IC50PABPN1: unit not given; for PABPN1/MSUT2 specificity ratio: ratio of FP IC50s
T2 construct: made in house; host or cells: E. coli BL21 (DE3)
T2 sequence (Q86U42 1-306): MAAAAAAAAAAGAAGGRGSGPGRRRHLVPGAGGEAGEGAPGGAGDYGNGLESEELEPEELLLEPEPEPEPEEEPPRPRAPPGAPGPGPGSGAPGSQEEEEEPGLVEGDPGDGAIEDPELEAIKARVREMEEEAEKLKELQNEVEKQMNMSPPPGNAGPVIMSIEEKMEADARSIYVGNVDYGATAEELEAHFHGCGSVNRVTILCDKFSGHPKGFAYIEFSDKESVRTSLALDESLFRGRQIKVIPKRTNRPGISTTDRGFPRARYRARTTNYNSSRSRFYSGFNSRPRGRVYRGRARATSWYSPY
Experimental: A drug repurposing strategy: screening of the NIH Clinical Collection compound library. […] The plan to find suitable lead compounds for drug repurposing began with a screen of the NIH Clinical Collection (NIHCC) library. The NIHCC consists of a diverse array of 700 compounds with historical pharmacological use and well-studied safety profiles. […] An orthogonal poly(A):MSUT2 binding assay allowed the ruling out of assay interference while selectivity against MSUT2 over PABPN1 was determined by a parallel FP assay with PABPN1 as the RBP. […] Thus, the goal was to eliminate compounds interfering with both PABN1 and MSUT2 and focus on compounds truly specific for poly(A):MSUT2 binding.
as §2, §3

GST-MSUT2 = molecular target: T3, GST-MSUT2 (Homo sapiens, UniProt Q6PJT7); test: Alpha Screen assay of biotinylated poly(A) RNA:GST-MSUT2 binding; settings: orthogonal dose-response validation
T3 construct: Targeted construct consisted of the c-terminal end (dark blue and amino acids 601-736) of MSUT2; made in house; host or cells: E. coli BL21 (DE3)
T3 sequence (Q6PJT7 601-736): T1 sequence (Q6PJT7 601-736)
Experimental: Alpha Screen Assay. Samples were set up in 384 well Perkin Elmer white opaque-bottom plates (PE06). A total reaction volume of […] was plated in 384 format using a CyBio Well Vario (6 μL of donor beads (10 μg/mL), 3 μL biotinylated RNA (250 nM), 3 μL GST-MSUT2 protein (250 nM) per well). 50 nL of compounds were transferred to wells via CyBio Vario equipped with Pin Tool. This mixture was incubated at room temperature for 30 minutes away from light. Next 3 μL of acceptor beads (1.25 μg/mL) was added. Plates were incubated at room temperature away from light for 60 minutes and subsequently read on a Perkin Elmer EnVision multimode microplate reader equipped with stackers using a standard 384-well Alpha Assay software protocol.
Results. Alpha Screen design and underlying principle. Alpha Screen technology relies on donor beads, coated with a hydrogel excitable by 680 nm, brought within close proximity to an acceptor bead leading to light emission and detection. In this assay, streptavidin coated donor beads tightly bind to biotinylated-poly(A) RNA while the glutathione-coated acceptor bead binds to GST-tagged MSUT2 protein. […] When this interaction is blocked by an inhibitor, the proximity threshold for donor and acceptor beads is not met, singlet oxygen transference cannot occur, and light is not emitted by the acceptor bead (FIG. 1a).
Identification and validation of MSUT2 inhibitory compounds from NIHCC library. The single-point primary screen was conducted in duplicate and utilized the FP assay conditions determined herein (e.g., 125 nM MSUT2 RNABP and 10 nM FAM-RNA probe) with 10 μM library compounds added in a 96-well format. […] Compound specificity was empirically tested by counter screening against PABPN1, a regulator of the length of mRNA poly(A) tails (Apponi, L. H. et al. Hum Mol Genet 19, 1058-1065, (2010); and Benoit, B. et al. Dev Cell 9, 511-522, (2005)). IC50 of each of the previous 8 compounds was determined for PABPN1 using fluorescence polarization (FIG. 11), and a specificity ratio determined (Table 3). An Alpha Screen (AS) assay was developed as an orthogonal screen. Briefly, in this screen, biotinylated RNA binds streptavidin-coated donor beads, while GST-MSUT2 ZF binds glutathione-coated acceptor beads. […] Toxicity of these compounds in a HEK cell model was determined using a standard Promega Cell Titer Glo assay.
Alpha Screen Assay. […] The plate was then incubated again at room temperature away from light for 60 minutes and subsequently read on a Perkin Elmer EnSight multimode microplate reader using a standard 96-well Alpha Assay protocol.

MSUT2 = molecular target: T4, MSUT2 (Homo sapiens, UniProt Q6PJT7); settings: read-out: Kd of MSUT2 for poly(A); cited from earlier work
T4 sequence (Q6PJT7 1-736): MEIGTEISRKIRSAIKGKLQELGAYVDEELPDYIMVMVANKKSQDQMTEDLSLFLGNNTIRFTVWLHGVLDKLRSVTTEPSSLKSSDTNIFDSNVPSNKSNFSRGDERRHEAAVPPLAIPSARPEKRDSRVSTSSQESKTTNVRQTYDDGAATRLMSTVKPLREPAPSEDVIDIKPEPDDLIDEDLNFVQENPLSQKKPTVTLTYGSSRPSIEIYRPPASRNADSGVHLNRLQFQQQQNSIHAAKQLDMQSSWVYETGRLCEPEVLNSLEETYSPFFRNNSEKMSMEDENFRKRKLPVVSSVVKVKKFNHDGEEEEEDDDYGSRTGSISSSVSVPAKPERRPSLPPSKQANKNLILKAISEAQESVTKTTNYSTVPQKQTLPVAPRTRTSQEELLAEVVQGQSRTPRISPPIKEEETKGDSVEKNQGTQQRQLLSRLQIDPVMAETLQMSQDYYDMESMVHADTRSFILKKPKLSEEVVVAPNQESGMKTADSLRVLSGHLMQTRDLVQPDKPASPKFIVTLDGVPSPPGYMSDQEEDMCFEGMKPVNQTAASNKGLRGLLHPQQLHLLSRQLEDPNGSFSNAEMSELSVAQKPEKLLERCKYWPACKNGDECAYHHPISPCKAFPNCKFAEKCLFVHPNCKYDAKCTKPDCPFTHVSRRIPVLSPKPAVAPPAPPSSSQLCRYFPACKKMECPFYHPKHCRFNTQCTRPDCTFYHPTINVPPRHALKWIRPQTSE

[2] = molecular target: T5, MSUT2 ZF (ZC3H14 C-terminal CCCH zinc finger domain) (UniProt Q6PJT7 Q6PJT7:601-736); test: competition; FP competition, 10 nM FAM-RNA and 125 nM MSUT2 ZF, PBS; settings: tags: GST (pGEX-6P1)
T5 sequence: T1 sequence (Q6PJT7 601-736)
Experimental: as §1, §3

PABPN1 [3] = molecular target: T6, PABPN1 (UniProt Q86U42 Q86U42:1-306); test: Alpha Screen counter-screen; settings: tags: GST (pGEX-6P1); label: 5' biotin
T6 sequence: T2 sequence (Q86U42 1-306)

[4] = molecular target: T5, MSUT2 ZF (ZC3H14 C-terminal CCCH zinc …); test: FP; PBS, room temperature, 10 nM FAM-RNA; reported as affinity / binding constant; settings: tags: GST (pGEX-6P1); label: 5' FAM
Experimental: as §1, §3

Ki (nm) for MSUT2 (MSUT2 ZF): failed dose
Molecule: CNCC[C@@H](Oc1ccccc1C)c1ccccc1 [Atomoxetine]

Molecule: O=C(O)C1=CC(=C(c2ccc(O)c(C(=O)O)c2)c2ccc(O)c(C(=O)O)c2)C=CC1=O [Aurin tricarboxylic acid]
toxicity (effect on cell viability) (HEK-293 cells; HEK-293, 72 hours, indicated concentrations): relatively high toxicity at high concentrations

Ki (nm) for MSUT2 (MSUT2 ZF): failed DR
Molecule: O=C(N[C@H](CO)[C@H](O)c1ccc([N+](=O)[O-])cc1)C(Cl)Cl [Chloramphenicol]

IC50 (PABPN1 [1]): 6570 nM
Molecule: CC(C(=O)O)c1ccc(-c2ccccc2)c(F)c1 (stereo not drawn) [Flurbiprofen]

Ki (MSUT2 ZF): 534 nM | IC50 (MSUT2 ZF; read-out: IC50MSUT2): 541 nM | IC50PABPN1 (PABPN1 [1]): None
Molecule: CN1C2CCCC1CC(NC(=O)c1nn(C)c3ccccc13)C2 (stereo not drawn) [Granisetron]

Ki (MSUT2 ZF): 573 nM | IC50 (PABPN1 [1]): 23700 nM | PABPN1/MSUT2 specificity ratio (PABPN1 [1]): 40.7931
Molecule: OCCOCCN1CCN(C(c2ccccc2)c2ccc(Cl)cc2)CC1 (stereo not drawn) [Hydroxyzine]

Ki (MSUT2 ZF): 916 nM | IC50 (MSUT2 ZF; read-out: IC50MSUT2): 927 nM | IC50 (PABPN1 [1]): 28900 nM
Molecule: CC(C)(C)NC(=O)[C@@H]1CN(Cc2cccnc2)CCN1C[C@@H](O)C[C@@H](Cc1ccccc1)C(=O)N[C@H]1c2ccccc2C[C@H]1O [Indinavir]

Molecule: CCCCN1CCCC1CNC(=O)c1cc(C#N)c2ccccc2c1OC (stereo not drawn) [Nafadotride]
Ki (MSUT2 ZF): 867 nM | IC50 (PABPN1 [1]): 67700 nM | PABPN1/MSUT2 specificity ratio (PABPN1 [1]): 77.11

inhibition activity by Alpha Screen (AS) (GST-MSUT2): dose-dependent inhibition activity | Ki (MSUT2 ZF): 188 nM | IC50PABPN1 (PABPN1 [1]): None
Molecule: CC(C)(C)NC(=O)[C@@H]1C[C@@H]2CCCC[C@@H]2CN1C[C@@H](O)[C@H](Cc1ccccc1)NC(=O)[C@H](CC(N)=O)NC(=O)c1ccc2ccccc2n1 [Saquinavir]
cell viability (HEK-293 cells; HEK, highest tested dose of 4004, normalized to 2% DMSO vehicle): 65%

Molecule: C[C@H]1CCC[C@H](O)CCCCCc2cc(O)cc(O)c2C(=O)O1 [Zeranol]
Ki (nm) for MSUT2 (MSUT2 ZF): failed DR

Molecule: FAM-RNA: fluorescent FAM (fluorescein amidite)-labeled poly(A)15 RNA probe (SEQ ID NO: 3) (AAAAAAAAAAAAAAA; RNA, 5' {FAM}, backbone not given here)
Kd (MSUT2 ZF; saturation assay, FAM-RNA constant at 10 nM, read-out: affinity for FAM-RNA:MSUT2 ZF interaction): 810 nM

Molecule: poly(A): poly(A) RNA, natural ligand of MSUT2 (AAAAAAAAAAAAAAA; RNA, backbone not given here)
Kd (MSUT2): 60 ± 15 nM

Molecule: unlabeled poly(A)15 RNA: unlabeled poly(A) RNA 5′-AAAAAAAAAAAAAAA-3′ (SEQ ID NO: 2), positive control for inhibition (RNA, backbone not given here)
IC50 (MSUT2 ZF; 10 nM FAM-RNA:125 nM MSUT2 ZF, positive control, read-out: IC50 in FP competition assay): 320 nM

B1: poly(A)15 unlabeled (ssRNA)
RNA: AAAAAAAAAAAAAAA
IC50 [2]: 320 nM

B2: biotin-poly(A)15 (ssRNA)
RNA: AAAAAAAAAAAAAAA
binding result (PABPN1 [3]): binds

B3: FAM-poly(A)15 (ssRNA)
RNA: AAAAAAAAAAAAAAA
Kd [4]: 810 nM
